Data published in patent US9498467B2, “Treatment of chronic neutrophilic leukemia (CNL) and atypical chronic myeloid leukemia (aCML) by inhibitors of JAK1” (Incyte Corporation, priority 2014, dated 2016).

Experiments:
[1] = tested on: CNL carrying a JAK-activating CSF3R mutation; conditions: one patient with CNL carrying a JAK-activating CSF3R mutation; cited from earlier work
[2] = tested on: GCSF induced pSTAT3 in human neutrophils; test: JAK human neutrophil assay (pSTAT3 ELISA); conditions: 0.25 h, read-out: IC50 (inhibition of pSTAT3)
[3] = molecular target: T1, human JAK2 (a.a. 828-1132) (Homo sapiens, UniProt O60674); test: In vitro JAK kinase assay (HTRF), JAK2; format: biochemical; conditions: ratio of IC50s at 1 mM ATP
T1 construct: JAK2 (a.a. 828-1132); made in house; host or cells: insect cells (baculovirus)
T1 sequence (O60674 828-1132): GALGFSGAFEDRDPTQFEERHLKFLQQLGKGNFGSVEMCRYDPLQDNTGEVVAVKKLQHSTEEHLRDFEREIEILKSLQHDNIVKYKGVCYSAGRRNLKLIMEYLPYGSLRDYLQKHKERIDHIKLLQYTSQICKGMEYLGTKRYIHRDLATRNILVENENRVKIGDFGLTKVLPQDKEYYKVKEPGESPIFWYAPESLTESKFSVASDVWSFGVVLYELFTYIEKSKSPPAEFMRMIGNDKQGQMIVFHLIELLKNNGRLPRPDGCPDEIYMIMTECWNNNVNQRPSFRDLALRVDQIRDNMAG

[4] = molecular target: T2, human JAK1 (a.a. 837-1142) (Homo sapiens, UniProt P23458); test: In vitro JAK kinase assay (HTRF), JAK1; format: biochemical; conditions: 1 mM ATP
T2 construct: human JAK1 (a.a. 837-1142); made in house; host or cells: insect cells (baculovirus)
T2 sequence (P23458 849-1154): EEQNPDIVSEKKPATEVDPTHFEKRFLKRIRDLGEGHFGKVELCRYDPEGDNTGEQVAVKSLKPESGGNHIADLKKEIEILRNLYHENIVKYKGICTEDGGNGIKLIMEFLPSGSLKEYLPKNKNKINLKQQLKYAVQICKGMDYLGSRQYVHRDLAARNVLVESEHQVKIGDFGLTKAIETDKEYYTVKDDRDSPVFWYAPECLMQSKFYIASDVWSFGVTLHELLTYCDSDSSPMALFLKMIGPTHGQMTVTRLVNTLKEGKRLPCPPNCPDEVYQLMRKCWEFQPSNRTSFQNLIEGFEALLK

For `N#CCC(C1CCCC1)n1cc(-c2ncnc3[nH]ccc23)cn1` (stereo in doubt) [ruxolitinib, (3R)-3-cyclopentyl-3-[4-(7H-pyrrolo[2,3-d]pyrimidin-4-yl)-1H-pyrazol-1-yl]propanenitrile, reference compound], the clinical improvement [1] is given as “Marked clinical improvement” and the IC50 [2] is given as less than 100 nM.
For `N#CCC1(n2cc(-c3ncnc4[nH]ccc34)cn2)CN(C2CCN(C(=O)c3ccnc(C(F)(F)F)c3F)CC2)C1` [Compound 7, {1-{1-[3-Fluoro-2-(trifluoromethyl)iso-nicotinoyl]piperidin-4-yl}-3-[4-(7H-pyrrolo[2,3-d]pyrimidin-4-yl)-1H-pyrazol-1-yl]azetidin-3-yl}acetonitrile], the JAK2/JAK1 [3] was greater than 10, the IC50 [4] was less than 10 nM and the IC50 [2] was less than 100 nM.
`N#CC[C@]1(n2cc(-c3ncnc4[nH]ccc34)cn2)C[C@H](N2CCN(C(=O)c3ccnc(C(F)(F)F)n3)CC2)C1` [Compound 10, [trans-1-[4-(7H-pyrrolo[2,3-d]pyrimidin-4-yl)-1H-pyrazol-1-yl]-3-(4-{[2-(trifluoromethyl)pyrimidin-4-yl]carbonyl}piperazin-1-yl)cyclobutyl] acetonitrile] showed a JAK2/JAK1 [3] greater than 10 and an IC50 [4] of less than 10 nM.
Compound `C[C@H](O)CNCc1cc(OC2CCN([C@H]3C[C@](CC#N)(n4cc(-c5ncnc6[nH]ccc56)cn4)C3)CC2)nc(C(F)(F)F)c1` [Compound 25, {trans-3-(4-{[4-({[(2S)-2-hydroxypropyl]amino}methyl)-6-(trifluoromethyl)pyridin-2-yl]oxy}piperidin-1-yl)-1-[4-(7H-pyrrolo[2,3-d]pyrimidin-4-yl)-1H-pyrazol-1-yl]cyclobutyl} acetonitrile] has a JAK2/JAK1 [3] greater than 10 and an IC50 [4] of less than 10 nM.
`C[C@@H](CO)NCc1cc(OC2CCN([C@H]3C[C@](CC#N)(n4cc(-c5ncnc6[nH]ccc56)cn4)C3)CC2)nc(C(F)(F)F)c1` [Compound 23, {trans-3-(4-{[4-({[(1S)-2-hydroxy-1-methylethyl]amino}methyl)-6-(trifluoromethyl)pyridin-2-yl]oxy}piperidin-1-yl)-1-[4-(7H-pyrrolo[2,3-d]pyrimidin-4-yl)-1H-pyrazol-1-yl]cyclobutyl} acetonitrile] showed a JAK2/JAK1 [3] greater than 10 and an IC50 [4] of less than 10 nM.
`CC(C)(O)c1cc(O[C@H]2CC[C@@H](N3CC(CC#N)(n4cc(-c5ncnc6[nH]ccc56)cn4)C3)CC2)nc(C(F)(F)F)c1` [Compound 20, {1-(cis-4-{[4-(1-hydroxy-1-methylethyl)-6-(trifluoromethyl)pyridin-2-yl]oxy}cyclohexyl)-3-[4-(7H-pyrrolo[2,3-d]pyrimidin-4-yl)-1H-pyrazol-1-yl]azetidin-3-yl}acetonitrile] showed a JAK2/JAK1 [3] greater than 10 and an IC50 [4] of less than 10 nM.
In the case of `N#CC[C@]1(n2cc(-c3ncnc4[nH]ccc34)cn2)C[C@H](N2CCC(Oc3cc(CN4CCC[C@H]4CO)cc(C(F)(F)F)n3)CC2)C1` [Compound 12, {trans-3-(4-{[4-{[(2S)-2-(hydroxymethyl)pyrrolidin-1-yl]methyl}-6-(trifluoromethyl)pyridin-2-yl]oxy}piperidin-1-yl)-1-[4-(7H-pyrrolo[2,3-d]pyrimidin-4-yl)-1H-pyrazol-1-yl]cyclobutyl} acetonitrile], the JAK2/JAK1 [3] is reported as greater than 10 and the IC50 [4] is reported as less than 10 nM.
With `N#CC[C@]1(n2cc(-c3ncnc4[nH]ccc34)cn2)C[C@H](N2CCC(Oc3cc(CN4CC(O)C4)cc(C(F)(F)F)n3)CC2)C1` [Compound 11, {trans-3-(4-{[4-[(3-hydroxyazetidin-1-yl)methyl]-6-(trifluoromethyl)pyridin-2-yl]oxy}piperidin-1-yl)-1-[4-(7H-pyrrolo[2,3-d]pyrimidin-4-yl)-1H-pyrazol-1-yl]cyclobutyl} acetonitrile] the JAK2/JAK1 [3] was greater than 10 and the IC50 [4] was less than 10 nM.
Compound `N#CCC(C1CCN(c2nc3cccnc3o2)C1)n1cc(-c2ncnc3[nH]ccc23)cn1` (centres unmarked) [Compound 4, 3-(1-[1,3]oxazolo[5,4-b]pyridin-2-ylpyrrolidin-3-yl)-3-[4-(7H-pyrrolo[2,3-d]pyrimidin-4-yl)-1H-pyrazol-1-yl]propanenitrile] has a JAK2/JAK1 [3] greater than 10 and an IC50 [4] of less than 10 nM.
`N#CCC1(n2cc(-c3ncnc4[nH]ccc34)cn2)CN([C@H]2CC[C@@H](Oc3cc(CCO)nc(C(F)(F)F)n3)CC2)C1` [Compound 18, {1-(cis-4-{[6-(2-hydroxyethyl)-2-(trifluoromethyl)pyrimidin-4-yl]oxy}cyclohexyl)-3-[4-(7H-pyrrolo[2,3-d]pyrimidin-4-yl)-1H-pyrazol-1-yl]azetidin-3-yl}acetonitrile] showed a JAK2/JAK1 [3] greater than 10 and an IC50 [4] of less than 10 nM.
For `Cc1n[nH]c(C)c1-c1cnn(C2(CC#N)CN(c3cc(F)c(C(=O)N[C@@H](C)C(F)(F)F)cc3F)C2)c1` [Compound 2, 4-[3-(cyanomethyl)-3-(3′,5′-dimethyl-1H,1′H-4,4′-bipyrazol-1-yl)azetidin-1-yl]-2,5-difluoro-N-[(1S)-2,2,2-trifluoro-1-methylethyl]benzamide], the IC50 [2] was less than 100 nM.
Work on `N#CCC1(n2cc(-c3ncnc4[nH]ccc34)cn2)CN([C@H]2CC[C@@H](Oc3cc(CN4CC[C@@H](O)C4)cc(C(F)(F)F)n3)CC2)C1` [Compound 21, {1-(cis-4-{[4-{[(3R)-3-hydroxypyrrolidin-1-yl]methyl}-6-(trifluoromethyl)pyridin-2-yl]oxy}cyclohexyl)-3-[4-(7H-pyrrolo[2,3-d]pyrimidin-4-yl)-1H-pyrazol-1-yl]azetidin-3-yl}acetonitrile] yielded a JAK2/JAK1 [3] greater than 10 and an IC50 [4] of less than 10 nM.
`N#CC[C@]1(n2cc(-c3ncnc4[nH]ccc34)cn2)C[C@H](N2CCC(Oc3cc(CCO)cc(C(F)(F)F)n3)CC2)C1` [Compound 26, {trans-3-(4-{[4-(2-hydroxyethyl)-6-(trifluoromethyl)pyridin-2-yl]oxy}piperidin-1-yl)-1-[4-(7H-pyrrolo[2,3-d]pyrimidin-4-yl)-1H-pyrazol-1-yl]cyclobutyl} acetonitrile] gave a JAK2/JAK1 [3] greater than 10 and an IC50 [4] of less than 10 nM.
`C[C@@H](O)c1nc2cnc3ccsc3c2n1[C@H]1CC[C@H](CC#N)OC1` [Compound 1, ((2R,5S)-5-{2-[(1R)-1-hydroxyethyl]-1H-imidazo[4,5-d]thieno[3,2-b]pyridin-1-yl}tetrahydro-2H-pyran-2-yl)acetonitrile] gave a JAK2/JAK1 [3] greater than 10, an IC50 [4] of less than 100 nM and an IC50 [2] of less than 100 nM.
